Data from US20160083380A1, “OXIMINO DERIVATIVES FOR THE TREATMENT OF DYSLIPIDEMIA” (CADILA HEALTHCARE LIMITED, priority 2013, published 2016).
Where two headings read alike, the source gives them in different places.

Test system: high fat diet C57 mice
Experiment: LDL-C lowering activity in high fat diet C57 mice
Type: in vivo
Conditions: Mus musculus, po, 672 h, C57 mice on high fat diet, orally once a day, dose 30 mg (30 mpk), blood collected on day 28 of treatment
Procedure: LDL-C Lowering Activity—in High Fat Diet C57 Mice
The in-vivo LDL-c lowering for test compound was tested in C57 mice which were kept on high fat diet for 4 weeks and the blood was collected by retro-orbital sinus puncture method under light ether anesthesia on day 0 (pretreatment). Animal are grouped based on LDL-c levels, after that 4-6 week treatment with vehicle or test compound orally at a dose of 30 mpk dose once a day was given. On completion of treatment on day 28 of the treatment the blood was collected for LDL-c and TC levels measurement. The percent change in LDL-c and TC in test compound group Vs Vehicle group was calculated.

[1] = read-out: % Change Vs Vehicle Control LDL-c
[2] = read-out: % Change Vs Vehicle Control TC

| SMILES | change in vivo at 30 mg/kg [1] [%] | change in vivo at 30 mg/kg [2] [%] |
| --- | --- | --- |
| C/C(=N\OCc1ccc(C(F)(F)F)cc1)c1ccc(OCc2nnn[nH]2)cc1O [Example 27, 1-(4-((1H-tetrazol-5-yl)methoxy)-2-hydroxyphenyl) ethanone O-(4-(trifluoromethyl)benzyl)oxime] | -50 ± 5 | -25 ± 3 |
| C/C(=N\OCc1ccc(C(C)(F)F)cc1)c1ccc(OCc2nnn(C(C)C)n2)nc1 [Example 58, 1-(6-((2-isoPropyl-2H-tetrazol-5-yl)methoxy)pyridin-3-yl)ethanone O-(4-(1,1-difluoroethyl)benzyl)oxime] | -36 ± 6 | -7 ± 2 |
| C/C(=N\OCc1ccc(C(C)(F)F)cc1)c1ccc(OCc2nnn[nH]2)nc1 [Example 43, 1-(6-((1H-tetrazol-5-yl)methoxy)pyridin-3-yl) ethanone O-(4-(1,1-difluoroethyl)benzyl)oxime] | -67 ± 1 | -38 ± 2 |
| CCn1nnc(COc2ccc(/C(C)=N/OCc3ccc(C(C)(F)F)cc3)cn2)n1 [Example 44, 1-(6-((2-Ethyl-2H-tetrazol-5-yl)methoxy)pyridin-3-yl)ethanone O-(4-(1,1-difluoroethyl)benzyl)oxime] | -50 ± 5 | -17 ± 3 |
| C/C(=N\OCc1ccc(C(F)(F)F)cc1)c1ccc(OCc2nnnn2C)cc1O [Example 29, 1-(2-Hydroxy-4-((1-methyl-1H-tetrazol-5-yl)methoxy)phenyl)ethanone O-(4-(trifluoromethyl)benzyl)oxime] | -14 ± 6 | -5 ± 3 |
| C/C(=N\OCc1ccc(C(F)(F)F)cc1)c1ccc(OCc2nnn[nH]2)cc1 [Example 1, 1-(4-((1H-tetrazol-5-yl)methoxy)phenyl)ethanone O-(4-(trifluoromethyl)benzyl)oxime] | -50 ± 4 | -24 ± 4 |
| C/C(=N\OCc1ccc(C(F)(F)F)cc1)c1ccc(OCc2nnc(C)[nH]2)nc1 [Example 18, 1-(6-((5-Methyl-4H-1,2,4-triazol-3-yl)methoxy)pyridin-3-yl)ethanone O-(4-(trifluoromethyl)benzyl)oxime] | -23 ± 6 | -11 ± 3 |
| C/C(=N\OCc1ccc(C(F)(F)F)cc1)c1ccc(OCc2nnnn2C)cc1 [Example 3, 1-(4-((1-Methyl-H-tetrazol-5-yl)methoxy)phenyl)ethanone O-(4-(trifluoromethyl)benzyl)oxime] | -5 ± 8 | -1 ± 3 |
| COc1cc(CO/N=C(\C)c2ccc(OCc3nnn[nH]3)cc2)ccc1C(F)(F)F [Example 25, 1-(4-((1H-tetrazol-5-yl)methoxy)phenyl)ethanone O-(3-methoxy-4-(trifluoromethyl)benzyl)oxime] | -54 ± 3 | -21 ± 2 |
| C/C(=N\OCc1ccc(C(F)(F)F)cc1)c1ccc(OCc2cnn[nH]2)cc1 [Example 6, 1-(4-((1H-1,2,3-triazol-5-yl)methoxy)phenyl)ethanone O-(4-(trifluoromethyl)benzyl)oxime] | -30 ± 5 | -11 ± 2 |
| C/C(=N\OCc1ccc(C(F)(F)F)cc1)c1ccc(OCc2nnn(CC3CCCCC3)n2)nc1 [Example 52, 1-(6-((2-(Cyclohexylmethyl)-2H-tetrazol-5-yl)methoxy)pyridin-3-yl)ethanone O-(4-(trifluoromethyl)benzyl)oxime] | -18 ± 11 | -2 ± 5 |
| C/C(=N\OCc1ccc(C(C)(F)F)cc1)c1ccc(OCc2nnn(CC3CC3)n2)nc1 [Example 60, 1-(6-((2-(Cyclopropylmethyl)-2H-tetrazol-5-yl)methoxy)pyridin-3-yl)ethanone O-(4-(1,1-difluoroethyl)benzyl)oxime] | -49 ± 3 | -17 ± 3 |
| C/C(=N\OCc1ccc(C(F)(F)F)cc1)c1ccc(OCc2nnnn2CC(=O)O)nc1 [Example 56, 2-(5-(((5-(1-(((4-(Trifluoromethyl)benzyl)oxy)imino)ethyl)pyridin-2-yl)oxy)methyl)-1H-tetrazol-1-yl)acetic acid] | -22 ± 5 | -16 ± 4 |
| CCn1nnc(COc2ccc(/C(C)=N/OCc3ccc(C(F)(F)F)cc3)cc2)n1 [Example 41, 1-(4-((2-Ethyl-2H-tetrazol-5-yl)methoxy)phenyl)ethanone O-(4-(trifluoromethyl)benzyl)oxime] | -36 ± 6 | -11 ± 5 |
| C/C(=N\OCc1ccc(C(C)(F)F)cc1)c1ccc(OCc2nnn[nH]2)cc1 [Example 22, 1-(4-((1H-tetrazol-5-yl)methoxy)phenyl)ethanone O-(4-(1,1-difluoroethyl)benzyl)oxime] | -61 ± 3 | -30 ± 3 |
| C/C(=N\OCc1ccc(C(F)(F)F)cc1)c1ccc(OCc2nnn(C)n2)cc1 [Example 2, 1-(4-((2-Methyl-2H-tetrazol-5-yl)methoxy)phenyl)ethanone O-(4-(trifluoromethyl)benzyl)oxime] | -29 ± 6 | -14 ± 3 |
| C/C(=N\OCc1ccc(C(F)(F)F)cc1)c1ccc(OCc2nnn[nH]2)nc1Cl [Example 36, 1-(6-((1H-tetrazol-5-yl)methoxy)-2-chloropyridin-3-yl)ethanone O-(4-(trifluoromethyl)benzyl)oxime] | -39 ± 5 | -12 ± 3 |
| CC(=NOCc1ccc(C(F)(F)F)cc1)c1ccc(OCc2nnn[nH]2)nc1 [Example 4, 1-(6-((1H-tetrazol-5-yl)methoxy)pyridin-3-yl)ethanone O-(4-(trifluoromethyl)benzyl)oxime] | -66 ± 2 | -41 ± 4 |
| C/C(=N\OCc1ccc(C(F)(F)F)cc1)c1ccc(OCc2nnn(CC3CC3)n2)nc1 [Example 50, 1-(6-((2-(Cyclopropylmethyl)-2H-tetrazol-5-yl)methoxy)pyridin-3-yl)ethanone O-(4-(trifluoromethyl)benzyl)oxime] | -47 ± 4 | -18 ± 3 |
| C/C(=N\OCc1ccc(C(F)(F)F)cc1)c1ccc(OCc2nnc(N)o2)cc1 [Example 20, 1-(4-((5-Amino-1,3,4-oxadiazol-2-yl)methoxy)phenyl)ethanone O-(4-(trifluoromethyl)benzyl)oxime] | -29 ± 5 | -13 ± 2 |
| C/C(=N\OCc1ccc(C(F)(F)F)cc1)c1ccc(OCc2nnn(C(C)C)n2)nc1 [Example 48, 1-(6-((2-isoPropyl-2H-tetrazol-5-yl)methoxy)pyridin-3-yl)ethanone O-(4-(trifluoromethyl)benzyl)oxime] | -47 ± 7 | -17 ± 3 |
| CCn1nnnc1COc1ccc(/C(C)=N/OCc2ccc(C(F)(F)F)cc2)cc1 [Example 42, 1-(4-((1-Ethyl-2H-tetrazol-5-yl)methoxy)phenyl)ethanone O-(4-(trifluoromethyl)benzyl)oxime] | -22 ± 9 | 1 ± 6 |
| C/C(=N\OCc1ccc(F)cc1)c1ccc(OCc2nnn[nH]2)cc1 [Example 31, 1-(4-((1H-tetrazol-5-yl)methoxy)phenyl)ethanone O-(4-fluorobenzyl)oxime] | -26 ± 10 | -7 ± 4 |
| CCn1nnc(COc2ccc(/C(C)=N/OCc3ccc(C(F)(F)F)cc3)cn2)n1 [Example 46, 1-(6-((2-Ethyl-2H-tetrazol-5-yl)methoxy)pyridin-3-yl)ethanone O-(4-(trifluoromethyl)benzyl)oxime] | -41 ± 4 | -20 ± 2 |
| C/C(=N\OCc1ccc(C(F)(F)F)cc1)c1ccc(OCc2nnc(C)o2)cc1 [Example 7, 1-(4-((5-Methyl-1,3,4-oxadiazol-2-yl)methoxy)phenyl)ethanone O-(4-(trifluoromethyl)benzyl)oxime] | -34 ± 7 | -10 ± 7 |
